PubChem BioAssay (NCI)
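96-well plates; 48 h exposure; 5 concentrations. Endpoints by linear interpolation between flanking doses. Not reached: highest tested concentration assigned. Here, GI50 denotes the concentration required for 50% inhibition of growth. The concentration for full growth arrest is given as TGI.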

Assays:
Assay in all cases: NCI anticancer screen, dose series, 48 h
MOLT-4 leukemia = test system: MOLT-4 leukemia
COLO 205 colon = test system: COLO 205 colon
K-562 leukemia = test system: K-562 leukemia
MDA-MB-231 breast = test system: MDA-MB-231 breast
SNB-19 CNS = test system: SNB-19 CNS
ACHN renal = test system: ACHN renal
HCC-2998 colon = test system: HCC-2998 colon
CAKI-1 renal = test system: CAKI-1 renal
IGROV1 ovarian = test system: IGROV1 ovarian
A549 NSCLC = test system: A549 NSCLC
SNB-75 CNS = test system: SNB-75 CNS
U251 CNS = test system: U251 CNS
PC-3 prostate = test system: PC-3 prostate
OVCAR-5 ovarian = test system: OVCAR-5 ovarian
HCT-15 colon = test system: HCT-15 colon
RXF 393 renal = test system: RXF 393 renal
MCF7 breast = test system: MCF7 breast
HT29 colon = test system: HT29 colon
M14 melanoma = test system: M14 melanoma
A498 renal = test system: A498 renal
HCT-116 colon = test system: HCT-116 colon
LOX IMVI melanoma = test system: LOX IMVI melanoma
HS 578T breast = test system: HS 578T breast
SN12C renal = test system: SN12C renal
SK-MEL-5 melanoma = test system: SK-MEL-5 melanoma
NCI-H522 lung = test system: NCI-H522 lung
SF-268 CNS = test system: SF-268 CNS
OVCAR-3 ovarian = test system: OVCAR-3 ovarian
MDA-MB-435 = test system: MDA-MB-435
MALME-3M melanoma = test system: MALME-3M melanoma
UO-31 renal = test system: UO-31 renal
MDA-N = test system: MDA-N
NCI-H460 lung = test system: NCI-H460 lung
SF-539 CNS = test system: SF-539 CNS
NCI-H226 lung = test system: NCI-H226 lung
SR leukemia = test system: SR leukemia
OVCAR-8 ovarian = test system: OVCAR-8 ovarian
SW-620 colon = test system: SW-620 colon
BT-549 breast = test system: BT-549 breast
SK-MEL-28 melanoma = test system: SK-MEL-28 melanoma
T-47D breast = test system: T-47D breast
HL-60(TB) leukemia = test system: HL-60(TB) leukemia
786-0 renal = test system: 786-0 renal
HOP-62 NSCLC = test system: HOP-62 NSCLC
UACC-257 melanoma = test system: UACC-257 melanoma
RPMI-8226 leukemia = test system: RPMI-8226 leukemia
OVCAR-4 ovarian = test system: OVCAR-4 ovarian
NCI-H23 lung = test system: NCI-H23 lung
DU-145 prostate = test system: DU-145 prostate
SK-MEL-2 melanoma = test system: SK-MEL-2 melanoma
HOP-92 NSCLC = test system: HOP-92 NSCLC
SF-295 CNS = test system: SF-295 CNS
EKVX NSCLC = test system: EKVX NSCLC
UACC-62 melanoma = test system: UACC-62 melanoma
SK-OV-3 ovarian = test system: SK-OV-3 ovarian
NCI/ADR-RES ovarian = test system: NCI/ADR-RES ovarian
KM12 colon = test system: KM12 colon
TK-10 renal = test system: TK-10 renal
CCRF-CEM leukemia = test system: CCRF-CEM leukemia

c1ccc(-c2cc(-c3cc(-c4ccccn4)[nH]n3)n[nH]2)nc1
TGI (MOLT-4 leukemia): > 100 µM | TGI (COLO 205 colon): > 100 µM | TGI (K-562 leukemia): > 100 µM | TGI (MDA-MB-231 breast): > 100 µM | TGI (SNB-19 CNS): > 100 µM | TGI (ACHN renal): > 100 µM | TGI (HCC-2998 colon): 83.6 µM | TGI (CAKI-1 renal): > 100 µM | TGI (IGROV1 ovarian): > 100 µM | TGI (A549 NSCLC): > 100 µM | TGI (SNB-75 CNS): > 100 µM | TGI (U251 CNS): > 100 µM | TGI (PC-3 prostate): > 100 µM | TGI (OVCAR-5 ovarian): > 100 µM | TGI (HCT-15 colon): > 100 µM | TGI (RXF 393 renal): > 100 µM | TGI (MCF7 breast): > 100 µM | TGI (HT29 colon): > 100 µM | TGI (M14 melanoma): > 100 µM | TGI (A498 renal): > 100 µM | TGI (HCT-116 colon): > 100 µM | TGI (LOX IMVI melanoma): > 100 µM | TGI (HS 578T breast): > 100 µM | TGI (SN12C renal): > 100 µM | TGI (SK-MEL-5 melanoma): > 100 µM | TGI (NCI-H522 lung): > 100 µM | TGI (SF-268 CNS): > 100 µM | TGI (OVCAR-3 ovarian): > 100 µM | TGI (MDA-MB-435): > 100 µM | TGI (MALME-3M melanoma): > 100 µM | TGI (UO-31 renal): 73.2 µM | TGI (MDA-N): > 100 µM | TGI (NCI-H460 lung): > 100 µM | TGI (SF-539 CNS): > 100 µM | TGI (NCI-H226 lung): > 100 µM | TGI (SR leukemia): 80.6 µM | TGI (OVCAR-8 ovarian): > 100 µM | TGI (SW-620 colon): > 100 µM | TGI (BT-549 breast): > 100 µM | TGI (SK-MEL-28 melanoma): > 100 µM | TGI (T-47D breast): > 100 µM | TGI (HL-60(TB) leukemia): > 100 µM | TGI (786-0 renal): > 100 µM | TGI (HOP-62 NSCLC): > 100 µM | TGI (UACC-257 melanoma): > 100 µM | TGI (RPMI-8226 leukemia): > 100 µM | TGI (OVCAR-4 ovarian): > 100 µM | TGI (NCI-H23 lung): > 100 µM | TGI (DU-145 prostate): > 100 µM | TGI (SK-MEL-2 melanoma): > 100 µM | TGI (HOP-92 NSCLC): > 100 µM | TGI (SF-295 CNS): > 100 µM | TGI (EKVX NSCLC): > 100 µM | TGI (UACC-62 melanoma): > 100 µM | TGI (SK-OV-3 ovarian): > 100 µM | TGI (NCI/ADR-RES ovarian): > 100 µM | TGI (KM12 colon): > 100 µM

O=C=Nc1ccc(Cc2ccc(N=C=O)cc2)cc1 (tested in a mixture with another compound)
GI50 (MOLT-4 leukemia): 1.33 µg/mL | TGI (MOLT-4 leukemia): > 25 µg/mL | GI50 (COLO 205 colon): > 25 µg/mL | TGI (COLO 205 colon): > 25 µg/mL | GI50 (K-562 leukemia): 12.3 µg/mL | TGI (K-562 leukemia): > 25 µg/mL | GI50 (MDA-MB-231 breast): > 25 µg/mL | TGI (MDA-MB-231 breast): > 25 µg/mL | GI50 (SNB-19 CNS): > 25 µg/mL | TGI (SNB-19 CNS): > 25 µg/mL | GI50 (ACHN renal): > 25 µg/mL | TGI (ACHN renal): > 25 µg/mL | GI50 (CAKI-1 renal): > 25 µg/mL | TGI (CAKI-1 renal): > 25 µg/mL | GI50 (IGROV1 ovarian): > 25 µg/mL | TGI (IGROV1 ovarian): > 25 µg/mL | GI50 (A549 NSCLC): > 25 µg/mL | TGI (A549 NSCLC): > 25 µg/mL | GI50 (SNB-75 CNS): > 25 µg/mL | TGI (SNB-75 CNS): > 25 µg/mL | GI50 (U251 CNS): > 25 µg/mL | TGI (U251 CNS): > 25 µg/mL | GI50 (PC-3 prostate): > 25 µg/mL | TGI (PC-3 prostate): > 25 µg/mL | GI50 (OVCAR-5 ovarian): > 25 µg/mL | TGI (OVCAR-5 ovarian): > 25 µg/mL | GI50 (HCT-15 colon): > 25 µg/mL | TGI (HCT-15 colon): > 25 µg/mL | GI50 (RXF 393 renal): > 25 µg/mL | TGI (RXF 393 renal): > 25 µg/mL | GI50 (MCF7 breast): > 25 µg/mL | TGI (MCF7 breast): > 25 µg/mL | GI50 (TK-10 renal): > 25 µg/mL | TGI (TK-10 renal): > 25 µg/mL | GI50 (HT29 colon): > 25 µg/mL | TGI (HT29 colon): > 25 µg/mL | GI50 (M14 melanoma): > 25 µg/mL | TGI (M14 melanoma): > 25 µg/mL | GI50 (A498 renal): > 25 µg/mL | TGI (A498 renal): > 25 µg/mL | GI50 (HCT-116 colon): > 25 µg/mL | TGI (HCT-116 colon): > 25 µg/mL | GI50 (LOX IMVI melanoma): > 25 µg/mL | TGI (LOX IMVI melanoma): > 25 µg/mL | GI50 (HS 578T breast): > 25 µg/mL | TGI (HS 578T breast): > 25 µg/mL | GI50 (SN12C renal): > 25 µg/mL | TGI (SN12C renal): > 25 µg/mL | GI50 (SK-MEL-5 melanoma): > 25 µg/mL | TGI (SK-MEL-5 melanoma): > 25 µg/mL | GI50 (NCI-H522 lung): > 25 µg/mL | TGI (NCI-H522 lung): > 25 µg/mL | GI50 (SF-268 CNS): > 25 µg/mL | TGI (SF-268 CNS): > 25 µg/mL | GI50 (OVCAR-3 ovarian): > 25 µg/mL | TGI (OVCAR-3 ovarian): > 25 µg/mL | GI50 (MDA-MB-435): > 25 µg/mL | TGI (MDA-MB-435): > 25 µg/mL | GI50 (MALME-3M melanoma): > 25 µg/mL | TGI (MALME-3M melanoma): > 25 µg/mL | GI50 (UO-31 renal): > 25 µg/mL | TGI (UO-31 renal): > 25 µg/mL | GI50 (CCRF-CEM leukemia): > 25 µg/mL | TGI (CCRF-CEM leukemia): > 25 µg/mL | GI50 (MDA-N): > 25 µg/mL | TGI (MDA-N): > 25 µg/mL | GI50 (NCI-H460 lung): > 25 µg/mL | TGI (NCI-H460 lung): > 25 µg/mL | GI50 (SF-539 CNS): > 25 µg/mL | TGI (SF-539 CNS): > 25 µg/mL | GI50 (NCI-H226 lung): > 25 µg/mL | TGI (NCI-H226 lung): > 25 µg/mL | GI50 (SR leukemia): > 25 µg/mL | TGI (SR leukemia): > 25 µg/mL | GI50 (OVCAR-8 ovarian): > 25 µg/mL | TGI (OVCAR-8 ovarian): > 25 µg/mL | GI50 (SW-620 colon): > 25 µg/mL | TGI (SW-620 colon): > 25 µg/mL | GI50 (BT-549 breast): > 25 µg/mL | TGI (BT-549 breast): > 25 µg/mL | GI50 (SK-MEL-28 melanoma): > 25 µg/mL | TGI (SK-MEL-28 melanoma): > 25 µg/mL | GI50 (T-47D breast): > 25 µg/mL | TGI (T-47D breast): > 25 µg/mL | GI50 (786-0 renal): > 25 µg/mL | TGI (786-0 renal): > 25 µg/mL | GI50 (HOP-62 NSCLC): > 25 µg/mL | TGI (HOP-62 NSCLC): > 25 µg/mL | GI50 (UACC-257 melanoma): > 25 µg/mL | TGI (UACC-257 melanoma): > 25 µg/mL | GI50 (RPMI-8226 leukemia): > 25 µg/mL | TGI (RPMI-8226 leukemia): > 25 µg/mL | GI50 (OVCAR-4 ovarian): > 25 µg/mL | TGI (OVCAR-4 ovarian): > 25 µg/mL | GI50 (NCI-H23 lung): > 25 µg/mL | TGI (NCI-H23 lung): > 25 µg/mL | GI50 (DU-145 prostate): > 25 µg/mL | TGI (DU-145 prostate): > 25 µg/mL | GI50 (SK-MEL-2 melanoma): > 25 µg/mL | TGI (SK-MEL-2 melanoma): > 25 µg/mL | GI50 (HOP-92 NSCLC): > 25 µg/mL | TGI (HOP-92 NSCLC): > 25 µg/mL | GI50 (SF-295 CNS): > 25 µg/mL | TGI (SF-295 CNS): > 25 µg/mL | GI50 (EKVX NSCLC): > 25 µg/mL | TGI (EKVX NSCLC): > 25 µg/mL | GI50 (UACC-62 melanoma): > 25 µg/mL | TGI (UACC-62 melanoma): > 25 µg/mL | GI50 (SK-OV-3 ovarian): > 25 µg/mL | TGI (SK-OV-3 ovarian): > 25 µg/mL | GI50 (NCI/ADR-RES ovarian): > 25 µg/mL | TGI (NCI/ADR-RES ovarian): > 25 µg/mL | GI50 (KM12 colon): > 25 µg/mL | TGI (KM12 colon): > 25 µg/mL
